Results reported in PubChem BioAssay AID1626 (SRMLSC, 2009).

Test system: M. tuberculosis H37Rv growth inhibition
Test: M. tuberculosis H37Rv growth inhibitors, H37Rv strain (AID 1626)
Conditions: for IC90: measured here: IC90 against H37Rv; for CC50: measured here: Vero cell cytotoxicity

Structure (SMILES)	IC50 [µM]	IC90 [µM]	CC50 [µM]
COc1cc(C)c(/C=C/C(C)=C/C=C/C(C)=C/C(=O)O)c(C)c1C	0.488	> 100	> 40
COc1ccc(N=Cc2c(O)c3ccccc3oc2=O)cc1		> 100	> 40
CCOC(=O)c1ccc(N=C(C)c2c(O)[nH]c(=O)[nH]c2=O)cc1		> 100	
COCCCNC(=O)COC(=O)c1ccc(-c2nc3ccccc3s2)s1	14.4	26.9	> 40
CCOc1ccc2ncc(S(=O)(=O)c3ccc(C)cc3)c(N3CCC4(CC3)OCCO4)c2c1	28.2	> 100	> 40
Cc1nc(N2CCN(Cc3ccc4c(c3)OCO4)CC2)c2cc(-c3ccccc3)sc2n1	5.39	6.08	> 40
CC(C)Nc1ccc(Nc2ccnc3cc4ccccc4cc23)cc1	5.31	9.7	3.3
Cc1ccc(NCc2nnc(SCC(=O)OC3CCCCC3)o2)c(C)c1	0.332	1.59	
CC(=O)Nc1nc(NC(=O)/C=C/c2ccccc2)n(-c2ccccc2)n1	3.63	8.76	27.7
O=C(Nc1nnc(C2=COCCO2)o1)c1ccc(Cc2ccccc2)cc1	4.49	10.6	> 40
CC(C)(C)c1ccccc1OCCOCCN1CCCCCC1	57.8	> 100	
CCOc1ccc(NC(=O)Nc2ccccc2SC)cc1			> 40
CCN1CCN(Cc2ccc(NC(=O)c3ccc(C)c(NC(=O)c4c[nH]c5cc(C(F)(F)F)ccc5c4=O)c3)cc2C(F)(F)F)CC1	3.86	4.72	3.28
c1ccc(CCCN2CCN(CCOC(c3ccccc3)c3ccccc3)CC2)cc1	5.22	5.82	> 40
C/C=C/c1ccc(OCC(=O)OCc2csc(Nc3ccc(C)cc3)n2)c(OC)c1	3.83	8.62	
CCOC(=O)C1CCCc2c1[nH]c1c(C(N)=O)cccc21 (stereo not given)	3.38	29.1	
O=c1[nH]c2ccccc2n1CCCN1CCN(C(c2ccccc2)c2ccccc2)CC1	17.1	25.3	> 40
CC(=O)Nc1nc2ccccc2n1Cc1ccccc1C	0.2	81	22.5
C/C(=C\C(=O)c1ccc(C)o1)Nc1ccc2c(c1)OCO2		> 100	
Cc1ccc(N=Nc2ccc(O)c3ncccc23)cc1C	14.1	> 100	3.1

Structure (SMILES)	IC50 [µM]	IC90 [µM]	CC50 [µM]
Cc1ccc(-c2csc3nc[nH]c(=S)c23)cc1C	20	> 100	26.1
CCc1ccc(/C=c2\s/c(=C\C(=O)C(C)(C)C)[nH]c2=O)cc1	2.55	3.56	> 40
CCCCc1c(C)c(C#N)c2nc3ccccc3n2c1Cl	10.1	> 100	5.35
CN(C)c1ccc(N=Nc2ccccc2C(=O)OCC(=O)NCC2CCCCC2)cc1	7.74	17.2	
C=CCn1c(O)c(C(CC)=Nc2ccc3c(c2)CCC3)c(=O)[nH]c1=O	17.8	> 100	
C=CCNc1cc(C(F)(F)F)nc(-c2ccccn2)n1	4.87	16.3	
O=C(Nc1nccs1)c1cc2c(s1)CCCCC2	5.64	25	> 40
O=C1c2cccc3c([N+](=O)[O-])ccc(c23)C(=O)N1CC1CCCO1 (stereo not given)	3.76	12.5	18.1
CCOC(=O)COc1ccc2c(=O)c(-c3ccc(OC)c(OC)c3)c(C(=O)OCC)oc2c1	2.51	5.68	
Cc1sc(-n2c(C)cc(/C=N/n3cnnc3)c2C)c(C#N)c1C			> 40
Cc1nc(S/C(=C/c2ccc(-c3ccc(Cl)cc3)o2)C(=O)O)n[nH]1	10.6	> 100	> 40
c1ccc(-c2nc(N3CCCCCC3)c3ccccc3n2)nc1	0.304	0.318	4.21
O=C1CCCC(O)=C1C=Nc1ccc2c(c1)oc1ccccc12	< 0.195	> 100	
c1ccc(-c2nc(NCC3CCCO3)c3ccccc3n2)nc1 (stereo not given)	3.11	3.21	> 40
CC(=O)OCCNc1cc(SCc2ccco2)c2nonc2c1[N+](=O)[O-]	0.657	1.66	
CCOC(=O)c1ccc(NC(=O)CCc2ccc(CC)o2)cc1	2.25	17.2	
CC(C)(C)c1ccccc1OCCCCCn1ccnc1	8.29	10.9	> 40
CCc1ccccc1NC(=O)c1ccc([N+](=O)[O-])s1		> 100	> 40
CCCCc1ccc(NC(=O)C(C)CC)cc1 (stereo not given)	6.21	> 100	
Cc1ccccc1OCc1nc(-c2ccc(NC(=O)c3cccs3)cc2)no1	4.48	46.6	

Structure (SMILES)	IC50 [µM]	IC90 [µM]	CC50 [µM]
N=C1SCC(=O)N1c1ncc(Cc2cccc(Cl)c2)s1	< 0.195	4.92	> 40
O=c1nc2c(O)cccn2c2c1c(=O)[nH]c1ccccc12	6.69	12.4	
Cc1nc(SCC(=O)Nc2ccc(OCc3ccccc3)cc2)n[nH]1	0.406	> 100	
CCCOC(=O)c1ccc(NC(=O)CCOc2ccccc2)cc1	0.622	> 100	
CC1=CC(C)(C)Nc2ccc(OC(=O)c3ccco3)cc21	54.4	> 100	> 40
CCN(CC)c1ccc(CNc2nc3ccccc3n2CCN2CCCCC2)cc1	36.7	43.8	> 40
CC1CCCC(NC(=O)COC(=O)c2sc3ccccc3c2Cl)C1C (stereo not given)	7.47	> 100	
Cc1ccc(C(=O)CC(SCC(=O)O)c2ccc([N+](=O)[O-])cc2)cc1 (stereo not given)	7.91	> 100	36.8
CC(C)c1nnc(NC(=O)c2c(O)c3cccc4c3n(c2=O)CCC4)s1	0.604	0.731	6.5
O=C(CSc1cccc2cccnc12)N1CCCC1			27.4
CC(Oc1ccc2oc3ccccc3c2c1)C(=O)NC12CC3CC(CC(C3)C1)C2 (stereo not given)	44.7	> 100	
CCOc1ccc(NCc2nnc(SCC(=O)Nc3cc(C)on3)n2-c2ccc(OC)cc2)cc1	35.3	> 100	
Cc1cc(C)cc(OCc2nnc(SCC(=O)OC(C)C)o2)c1		> 100	
CCc1c(O)nc(SCC(=O)Nc2ccc3c(c2)CCC3)[nH]c1=O	57.4	> 100	
Cc1cccc(OCCCCc2c(C)n[nH]c2C)c1	10.9	15.5	> 40
Cc1ccc2nc(-c3cccc(N)c3)oc2c1	12.7	> 100	> 40
Cc1cccc(C)c1N1CCN(c2ccc3nnc(C(F)(F)F)n3n2)CC1	11.8	61.8	> 40
O=c1c(O)c(-c2cccs2)oc2ccc(Cl)cc12	9.53	> 100	> 40
Cc1ccc(-n2cc(C(=O)c3ccc(N4CCN(C)CC4)cc3)nn2)cc1Cl	< 0.391	4.59	12
O=C(C[n+]1cc(-c2ccc(F)cc2)n2c1CCC2)Nc1nc(-c2ccc(F)cc2)cs1	10.5	41.1	
